{"source": "patent US11306331B2", "about": "“Processes for the production of hydroxycinnamic acids using polypeptides having tyrosine ammonia lyase activity” (CysBio ApS, priority 2014, dated 2022)", "molecules": {"B1": {"name": "Flavobacterium johnsoniae FjXAL tyrosine ammonia lyase (Protein GI 146298870), SEQ ID NO: 1, His-tagged (N-terminal tag SEQ ID NO: 11) (Flavobacterium … (protein)", "chain": "MNTINEYLSLEEFEAIIFGNQKVTISDVVVNRVNESFNFLKEFSGNKVIYGVNTGFGPMAQYRIKESDQIQLQYNLIRSHSSGTGKPLSPVCAKAAILARLNTLSLGNSGVHPSVINLMSELINKDITPLIFEHGGVGASGDLVQLSHLALVLIGEGEVFYKGERRPTPEVFEIEGLKPIQVEIREGLALINGTSVMTGIGVVNVYHAKKLLDWSLKSSCAINELVQAYDDHFSAELNQTKRHKGQQEIALKMRQNLSDSTLIRKREDHLYSGENTEEIFKEKVQEYYSLRCVPQILGPVLETINNVASILEDEFNSANDNPIIDVKNQHVYHGGNFHGDYISLEMDKLKIVITKLTMLAERQLNYLLNSKINELLPPFVNLGTLGFNFGMQGVQFTATSTTAESQMLSNPMYVHSIPNNNDNQDIVSMGTNSAVITSKVIENAFEVLAIEMITIVQAIDYLGQKDKISSVSKKWYDEIRNIIPTFKEDQVMYPFVQKVKDHLINN"}}, "key": {"[1]": {"target": "T1, Saccharothrix espanaensis SeSam8 (Protein GI 433607630), His-tagged (N-terminal tag SEQ ID NO: 11) (Saccharothrix espanaensis, UniProt Q2EYY5)", "T1 sequence (Q2EYY5 1-510)": "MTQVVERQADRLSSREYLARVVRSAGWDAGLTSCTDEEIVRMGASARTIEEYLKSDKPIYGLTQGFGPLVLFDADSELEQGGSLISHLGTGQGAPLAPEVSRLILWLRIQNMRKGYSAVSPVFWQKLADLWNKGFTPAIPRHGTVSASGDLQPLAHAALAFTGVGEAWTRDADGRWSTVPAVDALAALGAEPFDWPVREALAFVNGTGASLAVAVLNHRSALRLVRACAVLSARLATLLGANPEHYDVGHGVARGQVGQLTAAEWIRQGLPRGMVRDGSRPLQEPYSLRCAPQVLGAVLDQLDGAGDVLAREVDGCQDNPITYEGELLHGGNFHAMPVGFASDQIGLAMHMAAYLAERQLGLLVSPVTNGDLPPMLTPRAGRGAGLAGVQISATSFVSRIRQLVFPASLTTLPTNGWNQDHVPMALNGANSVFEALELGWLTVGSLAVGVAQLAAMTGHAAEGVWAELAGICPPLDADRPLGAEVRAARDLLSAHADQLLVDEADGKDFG", "experiment": "In vitro kinetics of purified His-tagged SeSam8 (tyrosine/phenylalanine ammonia lyase activity, absorbance at 315/295 nm)", "type": "biochemical", "source_text": "Four of the enzymes were further purified by His-tag purification as follows. A DNA linker (5′ phosphorylated oligonucleotides CBJP559 and CBJP560, Table 5) was inserted in place of the sequence between the NdeI and BgIII site in plasmid pCDFDuet-1. This would result in the addition of the amino acids MAHHHHHHENLYFQ (SEQ ID NO: 11) to the N-terminal end of the polypeptides. The resulting plasmid was amplified with primers CBJP575 and CBJP576 (table 5) and the genes were amplified and combined using the Gibson reaction (New England Biolabs). The PCR amplification used the same reverse primers as in example 1, but the forward primers matching the His-tag site of the linker (Table 5). Plasmids carrying the genes (e.g. FjXAL, FIG. 4) were transformed into electrocompetent E. coli BL21(DE3)pLysS cells (Life Technologies) and selected on LB plates containing 50 ug/mL streptomycin.\nStrains expressing His-tagged versions of the enzymes were grown in LB media overnight at 37° C. and diluted into fresh LB media with 1 mM IPTG and growth was propagated overnight (approximately 18 h) at 30° C. […]\n(§1) Enzymatic assays were performed in 200 μL volumes in wells in a UV transparent 96-well plate, by following the increase in absorbance at 315 nm (pHCA) or 295 nm (CA). […] The enzymatic activity was calculated as U/g, where U is defined as μmol substrate converted per minute."}, "[2]": {"target": "T2, Herpetosiphon aurantiacus HaXAL1 tyrosine ammonia lyase (Protein GI 159898407), SEQ ID NO: 2, His-tagged (N-terminal tag SEQ ID NO: 11) (Herpetosiphon aurantiacus, UniProt A9AUJ9)", "T2 sequence (A9AUJ9 1-552)": "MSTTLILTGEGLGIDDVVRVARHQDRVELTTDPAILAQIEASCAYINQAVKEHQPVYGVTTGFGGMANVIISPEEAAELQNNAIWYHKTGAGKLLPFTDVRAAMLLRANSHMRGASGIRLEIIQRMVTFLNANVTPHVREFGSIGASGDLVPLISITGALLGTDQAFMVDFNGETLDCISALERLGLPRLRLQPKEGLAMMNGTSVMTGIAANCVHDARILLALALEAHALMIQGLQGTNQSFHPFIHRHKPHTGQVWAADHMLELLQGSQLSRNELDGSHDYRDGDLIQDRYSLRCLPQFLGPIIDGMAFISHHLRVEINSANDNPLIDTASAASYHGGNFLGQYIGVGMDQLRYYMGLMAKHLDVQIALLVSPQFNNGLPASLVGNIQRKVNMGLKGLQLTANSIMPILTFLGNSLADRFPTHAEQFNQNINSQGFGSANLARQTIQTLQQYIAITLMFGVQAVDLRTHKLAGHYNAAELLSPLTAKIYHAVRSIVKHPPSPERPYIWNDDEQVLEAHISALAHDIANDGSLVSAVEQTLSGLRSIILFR", "experiment": "In vitro kinetics of purified His-tagged HaXAL1 (tyrosine/phenylalanine ammonia lyase activity, absorbance at 315/295 nm)", "type": "biochemical", "description": "The tyrosine ammonia lyase activity may for instance be determined in accordance to the following method: Enzymatic assays are performed in 200 μL volumes in wells in a UV transparent 96-well plate, by following the increase in absorbance at 315 nm (pHCA) using spectrophotometry or HPLC with UV detection. The reaction mixtures contain 2 μg of purified protein and are initiated by adding 1 mM tyrosine or 6 mM after equilibration to 30° C. The enzymatic activity is calculated as U/g, where U is defined as μmol substrate converted per minute. Negative controls contain no purified protein. Kinetic constants Km and vmax are determined from assays containing 1.56 μM to 200 μM tyrosine. See also Kyndt et al. (2002).\nFour of the enzymes were further purified by His-tag purification as follows. A DNA linker (5′ phosphorylated oligonucleotides CBJP559 and CBJP560, Table 5) was inserted in place of the sequence between the NdeI and BgIII site in plasmid pCDFDuet-1. This would result in the addition of the amino acids MAHHHHHHENLYFQ (SEQ ID NO: 11) to the N-terminal end of the polypeptides. […]\nas §1"}, "[3]": {"system": "E. coli BL21(DE3)pLysS cells", "experiment": "Titers of hydroxycinnamic acids in supernatants of E. coli cultures expressing TAL homologs", "type": "cell-based, Escherichia coli", "conditions": "16 hours, 37° C., duplicate", "description": "E. coli strains described in Example 1 were used. M9 medium with 0.2% glucose and 0.5 mM IPTG also containing either tyrosine (204 μM), L-dopa (194 μM) or 3-O-methyldopa (262 μM) was transferred as 3-mL aliquots into a 24-well deep-well plate (Enzyscreen). Aliquots were taken for HPLC before the wells were inoculated with 200 μL of overnight cultures of the strains. The plates were placed at 37° C. with shaking for 16 hours. Samples of the supernatant were withdrawn after two rounds of centrifugation. The samples were subjected to HPLC along with chemical standards as described in Example 1. p-coumaric acid, caffeic acid and ferulic acid was measured by absorbance at 333 nm. Tyrosine, L-dopa and 3-O-methyldopa were measured by fluorescence (excitation at 274 nm, emission at 303 nm).\nThere was no measurable product in the medium before inoculation."}, "[4]": {"conditions": "30° C, 1.56 μM to 200 μM tyrosine or 193 μM to 25 mM phenylalanine"}, "[5]": {"conditions": "ratio of Kcat/Km for Tyr over Phe"}}, "data": [{"molecule": "N[C@@H](Cc1ccc(O)cc1)C(=O)O", "note": "[Tyr, tyrosine]", "values": [{"measurement": "Kcat", "setting": "[1]; [4]", "result": 0.014, "unit": "s⁻¹"}, {"measurement": "TAL/PAL", "setting": "[1]; [5]", "result": 730}, {"measurement": "Kcat", "setting": "[2]; [4]", "result": 0.0517, "unit": "s⁻¹"}, {"measurement": "TAL/PAL", "setting": "[2]; [5]", "result": 540}]}, {"molecule": "B1", "values": [{"measurement": "Titer of ferulic acid", "setting": "[3]; M9 + 3-O-methyldopa (262 μM)", "result": "1.1 ± 0.3", "unit": "µM"}, {"measurement": "Titer of caffeic acid", "setting": "[3]; M9 + L-dopa (194 μM)", "result": "5.7 ± 1.0", "unit": "µM"}, {"measurement": "Titer of p-coumaric acid", "setting": "[3]; M9 + tyrosine (204 μM)", "result": "215 ± 11.1", "unit": "µM"}]}]}
